Patent US8067456B2 (AEterna Zentaris GmbH, priority 2004, dated 2011)
Values after ≈ are worked out from the molar mass of the structure shown.

How the values were obtained:
[1] = Metabolic stability in rat liver microsomes; format: in vitro ADME; conditions: 1 μM, 37° C., NADPH
Experimental: The metabolic stability in relation to liver microsomes (species human, rat) was determined in accordance with the following description: the substances were incubated at a test concentration of 1 […] An HPLC MS/MS method was subsequently used to quantify the unmetabolized amount of starting compound relative to 100%.

castrated rats = assay: LH concentration suppression in the plasma of castrated rats; format: in vivo, rat; conditions: 100 mg/kg oral in Solutol HS15/1,2-propane-diol (3:1)
Experimental: The LH concentration in the plasma of castrated rats was measured using the rat luteinizing hormone (rLH) enzyme immunoassay (EIA) system ELISA (RPN 2562) from Amersham Pharmacia Biotech or of LH RIA-AH R002 rats; from Biocode-Hycel, Liege, Belgium. All other chemicals used were from commercial sources in the highest purity available.
10 days before the start of the test, male Sprague Dawley rats (Harlan Winkelmann, Germany) weighing 190-220 g were anesthetized with ether and castrated and provided with a silicone catheter for permanent blood sampling.
At the start of the test, before administration of the substance, blood samples were taken and the LH level determined. The substance was then administered orally in the desired concentration. The number of animals used in each group was 8. At the stated times, further blood samples were taken. The blood was collected in heparinized sample tubes on ice, and the plasma was obtained by centrifugation at 3000 g for 10 minutes. The plasma samples were stored at −20° C. until the LH concentration was measured by ELISA or RIA. The LH concentration was determined by an ELISA or RIA in duplicate determination in accordance with the manufacturer's (Amersham Pharmacia Biotech; Biocode-Hycel) instructions.
All the other data points for each individual animal were calculated as relative concentration compared with the LH concentration before treatment.

LHRH receptor = target: T1, LHRH receptor (Rattus norvegicus, UniProt P30969); assay: LHRH receptor-ligand binding assay (membrane preparations from rat pituitary cells); conditions: competition with 0.05 nM [125I][D-Trp6]-LHRH, 90 min, 4° C., rat pituitary membranes
T1 construct: rat pituitary cells which naturally strongly express the LHRH receptor; from tissue; host or cells: rat pituitary cells (membrane preparation)
T1 sequence (P30969 1-327): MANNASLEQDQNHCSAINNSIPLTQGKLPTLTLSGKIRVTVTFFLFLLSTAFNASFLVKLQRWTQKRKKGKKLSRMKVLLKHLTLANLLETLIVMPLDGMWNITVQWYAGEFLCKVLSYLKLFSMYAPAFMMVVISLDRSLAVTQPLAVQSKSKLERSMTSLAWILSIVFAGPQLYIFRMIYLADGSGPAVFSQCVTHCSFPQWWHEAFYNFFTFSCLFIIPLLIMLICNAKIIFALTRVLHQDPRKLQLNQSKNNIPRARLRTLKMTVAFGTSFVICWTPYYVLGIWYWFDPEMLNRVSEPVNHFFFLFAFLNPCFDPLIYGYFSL
Experimental: Heterologous competition experiments were carried out using membrane preparations from rat pituitary cells which naturally strongly express the LHRH receptor. The ligand used in this case was [^125I][D-Trp^6]-LHRH in a concentration of 0.05 nM. Unlabeled [D-Trp^6]-LHRH was used in a concentration of 1 μM, or the test substance was used in the desired concentration, for competition. After an incubation time of 90 minutes at 4° C., the bound ligand was measured by scintillation (Halmos et al., Proc. Natl. Acad. Sci. USA, 1996, 93, 2398).
The result obtained was the percentage proportion of bound ligand in the presence of the competitor related to the specifically bound proportion of the control (see result for selected compounds in Table 3). EC50 values were calculated by nonlinear regression analysis of the competition plots.

[2] = Saturation solubility in water; format: physicochemical; conditions: water, thermodynamic from solid; maximum of 1% DMSO added, HPLC UV
Experimental: The saturation solubility in water was determined in accordance with the following description: to initiate dissolving of the substances and to improve the wetting of the samples, a maximum of 1% DMSO was added. The content was checked by using an HPLC UV method.

rat LHRH receptor = target: T2, rat LHRH receptor (Rattus norvegicus, UniProt P30969); assay: LHRH receptor-ligand binding assay (transfected LTK cells); conditions: LTK cells transfected with rat LHRH receptor, 125I-triptorelin tracer, 37° C., 60 min; read-out: Binding to r-LHRHR EC50
T2 construct: expressed in transfected cells; host or cells: LTK cells (mouse fibroblasts, ATCC CCL-1.3)
T2 sequence (P30969 1-327): T1 sequence (P30969 1-327)
Experimental: ^125I-Triptorelin [^125I-(D)-Trp6-GnRH] was purchased from Biotrend (Cologne, Germany).
The specific activity was in each case 2.13 Ci/mmol.
LTK cells (mouse fibroblasts: ATCC No. CCL-1.3) which have been transfected with the rat LHRH receptor are cultivated in DMEM medium (Invitrogen Life Technologies, Germany) with penicillin (100 I.U./ml), streptomycin (0.1 mg/ml) and glutamine (0.01 mol/l) and 10% fetal calf serum (FCS; Invitrogen Life Technologies, Germany) on plastic tissue culture plates (Nunc, Germany, 245×245-20 mm).
80% confluent cell culture plates are washed twice with 50 ml of phosphate-buffered saline (PBS) and then detached with 0.01 M EDTA solution. The cells are pelleted by centrifugation at 200·g for 5 min in a laboratory centrifuge (Kendro, Germany). The cell pellet is resuspended in 3 ml of binding medium (DMEM; 10 mM Hepes; 0.5% BSA; 0.1% […]; 1 g/l bacitracin (add fresh, stock 100×); 0.1 g/l SBTI (add fresh, stock 1000×) and the cell count is determined by Trypan blue staining in a Neubauer counting chamber. The cell suspension is adjusted with binding medium to a concentration of 5×10^5 cells/0.05 ml.
Binding studies for competition plots are carried out as duplicates. The test substances are employed as 10 mM DMSO solutions. They are diluted to 4 times the final concentration employed with binding medium. 25 μl of the substance dilution are mixed with 25 μl of tracer solution (^125I-triptorelin or ^125I-cetrorelix). The tracer concentration is adjusted to approx. 50 000 cpm (measured in a Cobra II, γ counter. PE Liefe Science, Germany) in the final reaction volume of 100 μl.
200 μl of silicone/liquid paraffin mixture (84%:16%) are introduced into 650 μl conical tubes (Roth. Germany). 50 μl of the cell suspension are pipetted thereon, followed by 50 μl of the test substance/tracer mixture. The tubes are capped and incubated with vertical rotation in an incubator at 37° C. for 60 min. After incubation, the samples are centrifuged in a centrifuge (Kendro, Germany) at 900 rpm and subsequently shock-frozen in liquid N2. The tip with the cell pellet is cut off and transferred into prepared counting vials (Roth, Germany). The remainder of the conical tube with the remaining supernatant is likewise transferred into a counting vial. The measurement takes place in a γ counter for 1 min/sample.
Evaluation of the samples takes place after calculation of the specific binding compared with untreated cells, after subtraction of the nonspecific binding (excess of unlabeled ligand, 1 μM) by means of GraphPad Prism or alternatively by means of OMMM software.

In the case of `CCC(C)[C@H](NC(=O)OCc1ccccc1)C(=O)N[C@]1(C(=O)N[C@H](C(N)=S)C(C)CC)CCc2[nH]c3c(Cl)cc(Cl)cc3c2C1` (stereo partly drawn) [Compound 7, benzyl {(S)-1-[(R)-6,8-dichloro-3-((S)-2-methyl-1-thiocarbamoylbutylcarbamoyl)-2,3,4,9-tetrahydro-1H-carbazol-3-ylcarbamoyl]-2-methylbutyl}carbamate], the recovery at 1 μM [1] is reported as 78%, the “Relative LH concentration (%) (averages ± SEM compared with the concentration before treatment)” value (castrated rats; time 0 h) is reported as 91.8 ± 19.1% and the “Relative LH concentration (%) (averages ± SEM compared with the concentration before treatment)” value (castrated rats; time +4 h) is reported as 19.6 ± 8.9%. For the same compound, the “Relative LH concentration (%) (averages ± SEM compared with the concentration before treatment)” value (castrated rats; time +6 h) was 10.1 ± 3.2%, the “Relative LH concentration (%) (averages ± SEM compared with the concentration before treatment)” value (castrated rats; time +24 h) was 65.1 ± 13.9% and the “Relative LH concentration (%) (averages ± SEM compared with the concentration before treatment)” value (castrated rats; time +48 h) was 110.6 ± 33.0%. For the same compound, the “Relative LH concentration (%) (averages ± SEM compared with the concentration before treatment)” value (castrated rats; time +72 h) was 268.4 ± 93.0%, the “Relative LH concentration (%) (averages ± SEM compared with the concentration before treatment)” value (castrated rats; time −2 h (before treatment)) was 110.8 ± 12.2% and the “Relative LH concentration (%) (averages ± SEM compared with the concentration before treatment)” value (castrated rats; time −4 h (before treatment)) was 97.4 ± 15.3%. For the same compound, the EC50 (LHRH receptor) was 6.9 nM, the solubility [2] was 54.6 µg/mL (≈ 80.9 µM) and the EC50 (rat LHRH receptor) was 7.9 nM.
